Results: patent US8008326B2, “4-benzyledene-piperidin derivatives” (Richter Gedeon Vegyeszeti Gyar Rt., priority 2004, dated 2011)
Where two headings read alike, the source gives them in different places. Marks after values point to notes of the source that are not given here.

How the values were obtained:
[1] = target: T1, NR2B containing NMDA receptors (rat cortical cells) (Rattus norvegicus, UniProt P35439+Q00960); experiment: NMDA antagonist potency by intracellular calcium measurement with plate reader fluorimeter in rat cortical cell culture; assay type: cell-based; conditions: fluorimetric method
T1 construct: The cells at this in vitro age are believed to express predominantly NR2B containing NMDA receptors; endogenous in cells; host or cells: primary neocortical cell culture from 17 day old rat embryos, 3-7 days in vitro
T1 sequence (Q00960 27-1482, other chains not shown): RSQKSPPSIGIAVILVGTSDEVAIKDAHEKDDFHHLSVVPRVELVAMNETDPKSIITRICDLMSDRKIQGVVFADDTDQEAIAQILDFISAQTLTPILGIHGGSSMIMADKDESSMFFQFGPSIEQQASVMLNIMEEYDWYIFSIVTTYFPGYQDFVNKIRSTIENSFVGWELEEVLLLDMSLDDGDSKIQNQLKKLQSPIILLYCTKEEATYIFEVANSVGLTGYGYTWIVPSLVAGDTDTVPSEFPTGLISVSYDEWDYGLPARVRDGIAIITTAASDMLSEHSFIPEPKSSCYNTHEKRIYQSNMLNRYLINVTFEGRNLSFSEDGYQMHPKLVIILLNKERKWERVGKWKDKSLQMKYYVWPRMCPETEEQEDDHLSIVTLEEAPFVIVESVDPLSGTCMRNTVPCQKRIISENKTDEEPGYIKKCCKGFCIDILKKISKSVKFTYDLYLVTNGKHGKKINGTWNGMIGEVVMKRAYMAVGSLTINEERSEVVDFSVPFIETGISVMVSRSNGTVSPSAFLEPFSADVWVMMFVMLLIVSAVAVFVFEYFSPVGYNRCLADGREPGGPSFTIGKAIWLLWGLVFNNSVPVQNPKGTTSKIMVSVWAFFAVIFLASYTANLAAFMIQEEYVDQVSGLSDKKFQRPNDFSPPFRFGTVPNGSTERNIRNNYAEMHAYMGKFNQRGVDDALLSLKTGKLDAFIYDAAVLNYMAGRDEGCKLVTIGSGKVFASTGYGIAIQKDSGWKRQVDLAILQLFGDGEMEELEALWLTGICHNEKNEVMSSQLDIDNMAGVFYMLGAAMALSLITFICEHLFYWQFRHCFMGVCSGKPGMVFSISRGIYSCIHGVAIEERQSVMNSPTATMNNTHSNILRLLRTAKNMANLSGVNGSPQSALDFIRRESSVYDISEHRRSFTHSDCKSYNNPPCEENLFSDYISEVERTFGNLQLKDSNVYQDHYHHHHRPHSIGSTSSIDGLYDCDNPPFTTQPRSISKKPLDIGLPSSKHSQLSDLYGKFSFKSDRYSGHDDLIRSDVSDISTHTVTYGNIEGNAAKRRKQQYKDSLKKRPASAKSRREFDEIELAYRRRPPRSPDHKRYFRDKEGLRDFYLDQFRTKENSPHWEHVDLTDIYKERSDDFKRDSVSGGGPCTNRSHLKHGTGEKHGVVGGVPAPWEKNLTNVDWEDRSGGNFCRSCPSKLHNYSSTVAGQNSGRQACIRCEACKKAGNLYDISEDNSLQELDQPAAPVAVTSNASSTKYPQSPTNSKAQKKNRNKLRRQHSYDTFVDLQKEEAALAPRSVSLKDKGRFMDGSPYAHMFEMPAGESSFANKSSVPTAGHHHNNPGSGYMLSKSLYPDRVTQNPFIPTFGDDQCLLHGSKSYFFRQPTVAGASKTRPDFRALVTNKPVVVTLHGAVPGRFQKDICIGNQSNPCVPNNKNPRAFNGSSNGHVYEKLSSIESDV
Experimental: Assessment of NMDA Antagonist Potency In Vitro by Measurement of Intracellular Calcium Concentration with a Plate Reader Fluorimeter in Rat Cortical Cell Culture
The cultures were used for the intracellular calcium measurements after 3-7 days in vitro. […] Before the measurement the cells were loaded with a fluorescent Ca^2+-sensitive dye, Fluo-4/AM (2 μM). To stop loading the cells were washed twice with the solution used for the measurement (140 mM NaCl, 5 mM KCl, 2 mM CaCl2, 5 mM HEPES, 5 mM HEPES-Na, 20 mM glucose, 10 μM glycine, pH=7.4). After washing, the test compounds were added to the cells in the above solution (90 μl well). Intracellular calcium measurements were carried out with a plate reader fluorimeter: elevation of Fluo-4-fluorescence and so, intracellular calcium concentration was induced by application of 40 μM NMDA. Inhibitory potency of the test compounds was assessed by measuring the reduction in the calcium elevation in the presence of different concentrations of the compounds.
(§1) Dose-response curves and IC50-values were calculated using data derived from at least three independent experiments. Inhibitory potency of a compound at a single concentration point was expressed as percent inhibition of the NMDA response. Sigmoidal concentration-inhibition curves were fit to the data and IC50 values were determined as the concentration that produces half of the maximal inhibition caused by the compound.

[2] = cited from earlier work
[3] = target: T2, recombinant NMDA receptors NR1/NR2A (HEK293 cells) (Homo sapiens, UniProt Q12879); experiment: Inhibition of NMDA evoked cytosolic calcium elevation in HEK293 cells transfected with NR1/NR2A; assay type: cell-based
T2 construct: expressed in transfected cells
T2 sequence (Q12879 23-1464, other chains not shown): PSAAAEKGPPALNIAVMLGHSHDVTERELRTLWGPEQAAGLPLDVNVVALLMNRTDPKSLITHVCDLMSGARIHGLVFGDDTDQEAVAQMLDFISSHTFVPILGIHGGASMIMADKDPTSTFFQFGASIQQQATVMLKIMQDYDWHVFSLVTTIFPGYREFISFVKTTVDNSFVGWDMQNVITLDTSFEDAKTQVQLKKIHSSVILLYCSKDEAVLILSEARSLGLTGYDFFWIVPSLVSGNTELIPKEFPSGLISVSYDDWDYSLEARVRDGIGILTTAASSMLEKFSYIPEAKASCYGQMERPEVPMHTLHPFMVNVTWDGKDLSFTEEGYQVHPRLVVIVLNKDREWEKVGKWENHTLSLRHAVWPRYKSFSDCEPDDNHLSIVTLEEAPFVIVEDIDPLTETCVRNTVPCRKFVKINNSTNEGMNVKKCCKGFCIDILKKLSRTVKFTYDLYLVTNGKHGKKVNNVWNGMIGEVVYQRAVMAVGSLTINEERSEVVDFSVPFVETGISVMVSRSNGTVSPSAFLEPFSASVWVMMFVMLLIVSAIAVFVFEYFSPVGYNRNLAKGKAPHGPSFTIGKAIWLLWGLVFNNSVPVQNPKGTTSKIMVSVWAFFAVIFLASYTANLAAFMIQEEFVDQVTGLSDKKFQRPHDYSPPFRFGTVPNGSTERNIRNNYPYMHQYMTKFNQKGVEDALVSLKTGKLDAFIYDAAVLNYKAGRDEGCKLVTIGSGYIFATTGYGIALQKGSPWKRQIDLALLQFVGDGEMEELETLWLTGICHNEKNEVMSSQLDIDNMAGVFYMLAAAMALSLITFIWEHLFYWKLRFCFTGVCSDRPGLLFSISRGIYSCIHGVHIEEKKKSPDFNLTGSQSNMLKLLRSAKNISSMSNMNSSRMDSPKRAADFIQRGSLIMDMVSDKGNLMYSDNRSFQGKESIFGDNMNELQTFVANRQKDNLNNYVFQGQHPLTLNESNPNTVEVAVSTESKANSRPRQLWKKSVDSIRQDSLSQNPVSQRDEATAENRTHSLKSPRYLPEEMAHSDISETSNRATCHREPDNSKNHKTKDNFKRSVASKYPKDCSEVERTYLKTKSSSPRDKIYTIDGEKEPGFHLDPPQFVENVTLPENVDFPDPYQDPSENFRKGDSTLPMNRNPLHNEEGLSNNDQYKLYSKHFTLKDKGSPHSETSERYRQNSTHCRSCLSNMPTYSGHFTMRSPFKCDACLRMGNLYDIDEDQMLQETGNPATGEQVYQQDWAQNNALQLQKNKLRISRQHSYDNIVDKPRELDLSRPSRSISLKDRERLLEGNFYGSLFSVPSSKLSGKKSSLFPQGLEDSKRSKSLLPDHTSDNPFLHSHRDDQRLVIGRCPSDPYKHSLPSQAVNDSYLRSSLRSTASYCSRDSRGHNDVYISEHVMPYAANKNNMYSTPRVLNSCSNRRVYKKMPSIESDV
Experimental: Expression of Recombinant NMDA Receptors
(1997); Neurochemistry International, 43, 19-29. (2003)]. […] Compounds were tested for their inhibitory action on NMDA evoked cytosolic calcium elevations in fluorescent calcium measurements. Studies were performed 48-72 h after addition of the inducing agent. Ketamine (500 μM) was also present during the induction in order to prevent cytotoxicity.
as §1

NMRI mice [4] = experiment: Mouse formalin test, second phase, oral administration; assay type: in vivo; conditions: 15 min before formalin, licking 20 to 25 min after injection
Experimental: Injection of diluted formalin into the hind paw of rats or mice is known to elicit a biphasic pain-related behaviour measured as time spent by licking/biting of the injured paw. The second phase is generally defined as pain related events detected in the 15-60 min. time interval after formalin injection, with peak activity at around 30 min. It is known that NMDA receptors are involved in the second phase of response to formalin injection and this behavioural response is sensitive to blockade of NMDA receptors [Dickenson, A. and Besson J.-M. (Editors): Chapter 1, pp. 6-7: Animal models of Analgesia; and Chapter 8, pp. 180-183. Mechanism of Central Hypersensitivity: Excitatory Amino Acid Mechanisms and Their Control—In Pharmacology of Pain. Springer-Verlag (Berlin) 1997.] Therefore, we used the second phase of formalin test to characterize the efficacy of compounds in vivo. Inhibition of the second phase of response is considered to indicate an analgesic effect against chemically-induced persistent pain [Hurker, S., et al.: Formalin Test in Mice, a Useful Technique for Evaluating Mild Analgesics, Journal of Neuroscience Methods, 14 (1985) 69-76.]
Male NMRI […] (20-25 g) were used. Prior to the experiment any solid food was withdrawn for approx. 16 hours but the animals had free access to 20% glucose solution. The animals were allowed 1 hour acclimatization period in a glass cylinder (cc. 15 cm in diameter), then moved to an identical cylinder with a mirror placed behind to facilitate observation. The test substances were suspended in 5% tween-80 (10 ml per kg body weight). and administered orally by gavage 15 min before the formalin injection (20 μl of 1% formalin in 0.9& saline injected subcutaneously into the dorsal surface of the right hindpaw). The time spent by licking and biting of the injected paw was measured from 20 to 25 min. after the formalin injection.

NMRI mice [5] = experiment: Spontaneous locomotor activity (LMA) in mice; assay type: in vivo, mouse; conditions: oral
Experimental: Measurement of Spontaneous Locomotor Activity in Mice
Male NMRI mice weighing 20-22 g were used in the experiments.
Spontaneous locomotor activity was measured in a four-channel activity monitor. The apparatus consisted of acrylic cages (43 cm×43 cm×32 cm) equipped with 2×16 pairs of photocells along all the bottom axis of the cage. An additional array of photocells (16 pairs) was placed along two opposite sides of the cage at the height of 10 cm in order to detect rearing responses.
Experimental groups consisted of 10 animals. Thirty minutes after the oral administration of the test compound or vehicle (tween-80), the animals were individually placed in one of four cages for one hour. Horizontal and vertical movements were determined as the number of beam interruptions for one hour at 15 ruin intervals.
Mean±SE of horizontal activity data of each group was calculated then percentual changes compared to the control (vehicle-treated) group were determined. A compound was considered to cause locomotor stimulation when its effect exceeded 50% increase in beam interruptions. Consequently, doses defined as free from stimulatory action (LMAfree) produced less than 50% increase.

[6] = 40 μM NMDA, read-out: Rat cortical cells (NR2B) appr. IC50
[7] = J. Pharmacol. Exp. Ther. 302 (2002), Behav. Pharmacol. 14 (2003)
[8] = other group, Neuropharmacology 38 (1999)

O=C1Cc2cc(NC(=O)C(=O)N3CCC(=Cc4ccc(Cl)cc4)CC3)ccc2N1 [Compound 14]
IC50 [1, 6]: 50 to 500 nM

Cc1ccc(CC2(O)CCN(CCOc3ccc(O)cc3)CC2)cc1 [Ro 63-1908]
effect on locomotor activity [2, 7]: increase locomotor activity

O=C1COc2cc(NC(=O)C(=O)N3CCC(=Cc4ccc(Cl)cc4)CC3)ccc2N1 [Compound 17]
IC50 [1, 6]: 500 to 1000 nM

CS(=O)(=O)Nc1ccc(NC(=O)C(=O)N2CCC(=Cc3ccccc3)CC2)cc1 [Compound 10]
IC50 [1, 6]: 50 to 500 nM

Cc1ccc(C=C2CCN(C(=O)C(=O)Nc3ccc4[nH]c(=O)n(C)c4c3)CC2)cc1 [Compound 23]
IC50 [1, 6]: 50 to 500 nM

COc1ccc(C=C2CCN(C(=O)C(=O)Nc3ccc(NS(C)(=O)=O)cc3)CC2)cc1 [Compound 40]
IC50 [1, 6]: < 50 nM
inhibition at 15 µM ([3]; HEK293): < 30%

Cc1ccc(C=C2CCN(C(=O)C(=O)Nc3ccc4[nH]c(=S)oc4c3)CC2)cc1 [Compound 26]
IC50 [1, 6]: 50 to 500 nM

O=C(Nc1ccc2[nH]c(=O)sc2c1)C(=O)N1CCC(=Cc2ccccc2)CC1 [Compound 5]
IC50 [1, 6]: < 50 nM
inhibition at 15 µM ([3]; HEK293): < 30%

O=C(Nc1ccc2[nH]c(=S)oc2c1)C(=O)N1CCC(=Cc2ccccc2)CC1 [Compound 6]
IC50 [1, 6]: 50 to 500 nM

O=C(Nc1ccc2[nH]c(=O)oc2c1)C(=O)N1CCC(Cc2ccccc2)CC1 [A, 2-(4-benzyl-piperidin-1-yl)-2-oxo-N-(2-oxo-2,3-dihydro-benzoxazol-6-yl)-acetamide]
ED50 (NMRI mice [4]): 0.85 mg/kg
LMA % increase (NMRI mice [5]; dose 1 mg/kg): 34* %
LMA % increase (NMRI mice [5]; dose 3 mg/kg): 62%

C[C@]12N[C@H](Cc3ccccc31)c1ccccc12 [MK-801, (+)-5-Methyl-10,11-dihydro-5H-dibenzo[a,d]cyclohepten-5,10-imine]
ED50 (NMRI mice [4]): 0.15 mg/kg
LMA % inc. (NMRI mice [5]; dose 0.1 mg/kg): 114%
LMA % inc. (NMRI mice [5]; dose 0.3 mg/kg): 217%

C[C@@H]([C@@H](O)c1ccc(O)cc1)N1CCC(O)(c2ccccc2)CC1 [CP-101,606, (1S,2S)-1-(4-hydroxyphenyl)-2-(4-hydroxy-4-phenylpiperidine-1-yl)-1-propanol]
ED50 (NMRI mice [4]): > 20 mg/kg
effect on locomotor activity [2, 8]: no such effect was observed
locomotor stimulating effect ([2]; up to 56 mg/kg s.c. and 100 mg/kg i.p., Soc. Neurosc. Abstr. 21 (1995)): Lack of locomotor stimulating effect

COc1ccc(C=C2CCN(C(=O)C(=O)Nc3ccc4[nH]c(=O)[nH]c4c3)CC2)cc1 [Compound 32]
IC50 [1, 6]: < 50 nM
inhibition at 15 µM ([3]; HEK293): < 30%

O=C(Nc1ccc2[nH]c(=O)sc2c1)C(=O)N1CCC(=Cc2ccc(Cl)cc2)CC1 [Compound 15]
IC50 [1, 6]: < 50 nM

Cc1ccc(C=C2CCN(C(=O)C(=O)Nc3ccc4[nH]c(=O)[nH]c4c3)CC2)cc1 [Compound 22]
IC50 [1, 6]: < 50 nM
inhibition at 15 µM ([3]; HEK293): < 30%

O=C(Nc1ccc2[nH]c(=S)oc2c1)C(=O)N1CCC(=Cc2ccc(Cl)cc2)CC1 [Compound 16]
IC50 [1, 6]: 50 to 500 nM

O=C(Nc1ccc2[nH]c(=O)oc2c1)C(=O)N1CCC(=Cc2ccc(Cl)cc2)CC1 [Compound 11]
IC50 [1, 6]: < 50 nM

Cc1ccc(C=C2CCN(C(=O)C(=O)Nc3ccc4[nH]c(=O)sc4c3)CC2)cc1 [Compound 25]
IC50 [1, 6]: < 50 nM

Cn1c(=O)[nH]c2ccc(NC(=O)C(=O)N3CCC(=Cc4ccccc4)CC3)cc21 [Compound 3]
IC50 [1, 6]: 50 to 500 nM

O=C1Cc2cc(NC(=O)C(=O)N3CCC(=Cc4ccc(F)cc4)CC3)ccc2N1 [Compound 42]
IC50 [1, 6]: 500 to 1000 nM

O=C1COc2cc(NC(=O)C(=O)N3CCC(=Cc4ccccc4)CC3)ccc2N1 [Compound 7]
IC50 [1, 6]: 500 to 1000 nM

Cc1ccc(C=C2CCN(C(=O)C(=O)Nc3ccc4c(c3)OCC(=O)N4)CC2)cc1 [Compound 27]
IC50 [1, 6]: 50 to 500 nM

C[C@@H](CN1CCC(Cc2ccccc2)CC1)[C@@H](O)c1ccc(O)cc1 [Ro 25.6981, R—(R*,S*)-1-(4-hydroxyphenyl)-2-methyl-3-[4-(phenylmethyl)piperidine-1-yl]-1-propanol]
inhibition at 10 µM ([3]; HEK293, read-out: NR1-3/NR2A % inhibition at 10 μM): 1%
ED50 (NMRI mice [4]): > 20 mg/kg
effect on locomotor activity [2, 7]: increase locomotor activity
effect on locomotor activity [2, 8]: no such effect was observed

Cc1ccc(C=C2CCN(C(=O)C(=O)Nc3ccc(NS(C)(=O)=O)cc3)CC2)cc1 [Compound 30]
IC50 [1, 6]: 50 to 500 nM

O=C(CCN1CCC(Cc2ccc(F)cc2)CC1)c1ccc2[nH]c(=O)oc2c1 [EMD 95885, reference compound]
IC50 ([1]; reference compounds, read-out: rat cortical cells IC50): 35 nM
NR1-3/NR2A % inhibition at 10 μM ([3]; 10 μM): 0.1%

O=C(Nc1ccc2[nH]c(=O)oc2c1)C(=O)N1CCC(=Cc2ccc(F)cc2)CC1 [Compound 41]
IC50 [1, 6]: < 50 nM
inhibition at 15 µM ([3]; HEK293): < 30%

CS(=O)(=O)Nc1ccc(NC(=O)C(=O)N2CCC(=Cc3ccc(Cl)cc3)CC2)cc1 [Compound 20]
IC50 [1, 6]: 50 to 500 nM

COc1ccc(C=C2CCN(C(=O)C(=O)Nc3ccc4[nH]c(=O)n(C)c4c3)CC2)cc1 [Compound 33]
IC50 [1, 6]: 50 to 500 nM

O=C(Nc1ccc2[nH]c(=O)oc2c1)C(=O)N1CCC(=Cc2ccccc2)CC1 [Compound 1, 2-(4-Benzylidene-piperidine-1-yl)-2-oxo-N-(2-oxo-2,3-dihydro-benzooxazol-6-yl)-acetamide]
IC50 [1, 6]: < 50 nM
inhibition at 15 µM ([3]; HEK293): < 30%
ED50 (NMRI mice [4]): 1 mg/kg
LMA % increase (NMRI mice [5]; dose 60 mg/kg): 35* %
LMA % increase (NMRI mice [5]; dose 120 mg/kg): 69%

O=C(Nc1ccc2[nH]c(=O)[nH]c2c1)C(=O)N1CCC(=Cc2ccc(Cl)cc2)CC1 [Compound 12]
IC50 [1, 6]: < 50 nM

Cc1ccc(CC2CCN(C(=O)C(=O)Nc3ccc4c(c3)CC(=O)N4)CC2)cc1 [B, 2-[4-[4-methyl-benzyl)-piperidin-1-yl]-2-oxo-N-(2-oxo-2,3-dihydro-1H-indol-5-yl)-acetamide]
ED50 (NMRI mice [4]): 0.48 mg/kg
LMA % increase (NMRI mice [5]; dose 3.75 mg/kg): 72%
LMA % increase (NMRI mice [5]; dose 7.5 mg/kg): 141%

O=c1[nH]c2ccc([S+]([O-])CCN3CCC(Cc4ccc(F)cc4)CC3)cc2o1 (stereo not shown) [CI-1041, 6-{2-[4-(4-fluoro-benzyl)-piperidin-1-yl]-ethanesulfinyl}-3H-benzooxazol-2-one]
ED50 (NMRI mice [4]): 2.4 mg/kg
LMA % inc. (NMRI mice [5]; dose 10 mg/kg): 137%

Cn1c(=O)[nH]c2ccc(NC(=O)C(=O)N3CCC(=Cc4ccc(Cl)cc4)CC3)cc21 [Compound 13]
IC50 [1, 6]: 50 to 500 nM
